{"source": "patent US6977294B2", "about": "“Process for isolation of eupalitin from Boerhavia diffusa” (Council of Scientific and Industrial Research, priority 2002, dated 2005)", "key": {"Ca^2+ channel": {"tested_on": "Ca^2+ channel", "details": "frog heart single cells; cited from earlier work"}, "[1]": {"details": "monkeys; cited from earlier work"}, "solubility in methanol": {"experiment": "solubility in methanol", "format": "physicochemical", "source_text": "The process of the present invention overcomes disadvantages of the prior art since: • 1. Aerial parts such as leaves of Boerhavia diffusa collected from specific locations identified herein are used (containing the maximum amount of the compound and as established by analyzing the samples of the plant collected during three years). • 2. The process prescribes hot continuous extraction (Soxhlet extraction) ensuring complete extraction of compound of formula 1. […] The compound is purified by direct crystallization from the residue obtained after triturition described in 3, making it the simplest, quickest, highly economically viable, scale up compatible for commercial utilization and novel method for the isolation of compound of formula 1 with an yield upto 0.4% which is more than 300 times the yield reported by Li et al."}, "[2]": {"tested_on": "bone resorption induced by parathyroid hormone (PTH)", "details": "cited from earlier work; for activity compared with ipriflavone: under identical conditions, anti-osteoporosis activity"}, "[3]": {"details": "rats; cited from earlier work"}, "[4]": {"details": "cats; cited from earlier work"}}, "note": "Entries after “also recorded” stand apart in the source; their conditions may differ. Like-named read-outs stand apart in the source and are kept apart here.", "data": [{"compound": "COc1cc([C@H]2OC[C@H]3[C@@H]2CO[C@@H]3c2cc(OC)c(O[C@@H]3O[C@H](CO)[C@@H](O)[C@H](O)[C@H]3O)c(OC)c2)cc(OC)c1O[C@@H]1O[C@H](CO)[C@@H](O)[C@H](O)[C@H]1O", "note": "[Liriodendrin, liriodendrin]", "values": [{"measurement": "Ca2+ channel block", "setting": "Ca^2+ channel", "value": "blocked"}]}, {"compound": "Punarnavoside", "values": [{"measurement": "antifibrinolytic activity", "setting": "[1]", "value": "had antifibrinolytic activity"}]}, {"compound": "COc1cc2oc(-c3ccc(O)cc3)c(OC3OC(CO)C(O)C(O)C3O)c(=O)c2c(O)c1OC", "note": "[eupalitin 3-O-β-D-galactopyranoside, 5,4′-dihydroxy 6,7-dimethoxy-flavonol-3-O-β-D-galactoside]", "values": [{"measurement": "solubility in methanol", "setting": "solubility in methanol", "value": "not highly soluble"}, {"measurement": "inhibition of bone resorption induced by parathyroid hormone (PTH)", "setting": "[2]; tissue culture", "value": "significant (p<0.001) inhibition"}, {"measurement": "activity compared with ipriflavone", "setting": "[2]", "value": "greater anti-osteoporosis activity than ipriflavone; also recorded: more than that exhibited by lpriflavone"}, {"measurement": "activity compared with ipriflavone", "setting": "[2]; listed as 3-O-β-D-galactopyranoside", "value": "greater anti-osteoporosis activity than ipriflavone"}]}, {"compound": "O=c1[nH]cnc2c1ncn2C1O[C@@H](CO)[C@H](O)[C@H]1O", "note": "(stereo partly drawn) [hypoxanthine 9-L-arabinoside]", "values": [{"measurement": "cardiovascular effects", "setting": "[3]", "value": "depressor and negative chronotropic effects"}, {"measurement": "cardiovascular effects", "setting": "[4]", "value": "depressor and negative chronotropic effects"}]}]}
